Converted amounts (≈) assume the structure as drawn. Like-named read-outs stand apart in the source and are kept apart here.
Columns and labels:
S. aureus ATCC 29213 = assay: MIC and MBC testing, broth microdilution; format: cell-based, Staphylococcus aureus; conditions: S. aureus ATCC 29213; for MIC: 18 h
Method in brief: (§1)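 Visible growth was scored after 18 h at 37 °C, and the MIC was taken as the lowest compound concentration showing none. Bacteria were grown to logarithmic phase in MH broth and diluted to 1 × 10^6 CFU/mL before combining with twofold compound dilutions.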

A. baumannii ATCC 19606 = assay: MIC and MBC testing, broth microdilution; format: cell-based, Acinetobacter baumannii
Method in brief: as §1

P. aeruginosa ATCC 27853 = assay: MIC and MBC testing, broth microdilution; format: cell-based, Pseudomonas aeruginosa
Method in brief: as §1

E. faecium ATCC 35667 = assay: MIC and MBC testing, broth microdilution; format: cell-based, Enterococcus faecium; conditions: E. faecium ATCC 35667; for MIC: 18 h
Method in brief: as §1

E. coli ATCC 25922 = assay: MIC and MBC testing, broth microdilution; format: cell-based, Escherichia coli
Method in brief: as §1

[1] = test system: K. pneumoniae ATCC 700603; assay: MIC and MBC testing, broth microdilution; format: cell-based, Klebsiella pneumoniae
Method in brief: as §1

[2] = test system: S. aureus, including MRSA; assay: MIC testing, summary over S. aureus strains; format: cell-based; conditions: Staphylococcus aureus
Description: (§2) The minimum inhibitory concentration (MIC) of all synthesized compounds was tested by the broth microdilution method. In brief, compounds dissolved in DMSO were diluted twice continuously in a 96-well plate with MH broth. The ESKAPE pathogens (E. coli ATCC 25922, S. aureus ATCC 29213, K. pneumoniae ATCC 700603, A. baumannii ATCC 19606, P. aeruginosa ATCC 27853, and E. faecium ATCC 35667), clinical S. aureus isolates (LMY45, LMY46, LMY47, and LMY48) and methicillin-resistant Staphylococcus aureus (MRSA-1 and MRSA-2) were cultured in MH broth to logarithmic growth phase and then diluted to 1 × 10^6 CFU/mL in MH broth. Subsequently, the diluted bacterial solution was mixed with the diluted compound solution in a 96-well plate and incubated at 37 °C for a duration of 18 h. The MIC of the compounds was recorded as the lowest concentration at which no visible growth was observed. […] Each concentration was replicated thrice.

MRSA = assay: MIC testing, summary over MRSA strains; format: cell-based; conditions: Staphylococcus aureus; against MRSA
Description: as §2

MRSA-2 = assay: MIC and MBC testing, broth microdilution; format: cell-based, Staphylococcus aureus; conditions: MRSA-2; for MIC: 18 h
Method in brief: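 Broth microdilution in MH broth; two-fold serial dilutions of DMSO-dissolved compound; inoculum 1 × 10^6 CFU/mL from log-phase culture; 37 °C, 18 h; triplicates; MBC also read.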

[3] = test system: clinical S. aureus isolate LMY48; assay: MIC and MBC testing, broth microdilution; format: cell-based, Staphylococcus aureus; conditions: LMY48; for MIC: 18 h
Method in brief: (§3)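 MIC and MBC determined by broth microdilution with twofold compound dilutions (from DMSO stock) in MH broth. Log-phase inoculum at 1 × 10^6 CFU/mL; 18 h incubation at 37 °C.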

MRSA-1 = assay: MIC and MBC testing, broth microdilution; format: cell-based, Staphylococcus aureus; conditions: MRSA-1; for MIC: 18 h
Method in brief: as §3

[4] = test system: clinical S. aureus isolate LMY47; assay: MIC and MBC testing, broth microdilution; format: cell-based, Staphylococcus aureus; conditions: LMY47; for MIC: 18 h
Method in brief: as §3

[5] = test system: clinical S. aureus isolate LMY45; assay: MIC and MBC testing, broth microdilution; format: cell-based, Staphylococcus aureus; conditions: LMY45; for MIC: 18 h
Method in brief: as §3

[6] = test system: clinical S. aureus isolate LMY46; assay: MIC and MBC testing, broth microdilution; format: cell-based, Staphylococcus aureus; conditions: LMY46; for MIC: 18 h
Method in brief: as §3

[7] = Staphylococcus aureus, ATCC29213, read-out: MIC
[8] = Staphylococcus aureus, ATCC29213, read-out: MBC
[9] = Acinetobacter baumannii, ATCC19606, 18 h, read-out: MIC
[10] = Acinetobacter baumannii, ATCC19606, read-out: MBC
[11] = Pseudomonas aeruginosa, ATCC27853, 18 h, read-out: MIC
[12] = Enterococcus faecium, ATCC35667, read-out: MIC
[13] = Enterococcus faecium, ATCC35667, read-out: MBC
[14] = Escherichia coli, ATCC25922, 18 h, read-out: MIC
[15] = Escherichia coli, ATCC25922, read-out: MBC
[16] = Klebsiella pneumoniae, ATCC700603, 18 h, read-out: MIC
[17] = Staphylococcus aureus, read-out: MIC
[18] = Staphylococcus aureus, read-out: MBC

Compound: [H]/N=C(\N)NN=C1CCCc2cc(OCc3ccc(Br)cc3)ccc21 [Compound 1S, (E)-2-(6-((4-bromobenzyl)oxy)-3,4-dihydronaphthalen-1(2H)-ylidene)hydrazine-1-carboximidamide]
- MIC (S. aureus ATCC 29213; [7]): 2 µg/mL (≈ 5.16 µM)
- MBC (S. aureus ATCC 29213; [8]): 8 µg/mL (≈ 20.7 µM)
- MIC (A. baumannii ATCC 19606; [9]): 8 µg/mL (≈ 20.7 µM)
- MBC (A. baumannii ATCC 19606; [10]): 16 µg/mL (≈ 41.3 µM)
- MIC (P. aeruginosa ATCC 27853; [11]): > 32 µg/mL
- MIC (E. faecium ATCC 35667; [12]): 4 µg/mL (≈ 10.3 µM)
- MBC (E. faecium ATCC 35667; [13]): 8 µg/mL (≈ 20.7 µM)
- MIC (E. coli ATCC 25922; [14]): 4 µg/mL (≈ 10.3 µM)
- MBC (E. coli ATCC 25922; [15]): 8 µg/mL (≈ 20.7 µM)
- MIC [1, 16]: 16 µg/mL (≈ 41.3 µM)
- MBC ([1]; Klebsiella pneumoniae, ATCC700603, read-out: MBC): 16 µg/mL (≈ 41.3 µM)
- MIC [2]: 0.5 to 4 µg/mL (≈ 1.29 to 10.3 µM)
- MIC (MRSA): 1 to 2 µg/mL (≈ 2.58 to 5.16 µM)
- MIC (MRSA-2; [17]): 1 µg/mL (≈ 2.58 µM)
- MBC (MRSA-2; [18]): 4 µg/mL (≈ 10.3 µM)
- MIC [3, 17]: 4 µg/mL (≈ 10.3 µM)
- MBC [3, 18]: 8 µg/mL (≈ 20.7 µM)
- MIC (MRSA-1; [17]): 1 µg/mL (≈ 2.58 µM)
- MBC (MRSA-1; [18]): 4 µg/mL (≈ 10.3 µM)
- MIC [4, 17]: 2 µg/mL (≈ 5.16 µM)
- MBC [4, 18]: 4 µg/mL (≈ 10.3 µM)
- MIC [5, 17]: 2 µg/mL (≈ 5.16 µM)
- MBC [5, 18]: 4 µg/mL (≈ 10.3 µM)
- MIC [6, 17]: 1 µg/mL (≈ 2.58 µM)
- MBC [6, 18]: 4 µg/mL (≈ 10.3 µM)

Compound: CC(C)=CCC/C(C)=C/COc1ccc2c(c1)CCC/C2=N\NC(=N)N [Compound 2J, 2-((E)-6-(((E)-3,7-dimethylocta-2,6-dien-1-yl)oxy)-3,4-dihydronaphthalen-1(2H)-ylidene)hydrazine-1-carboximidamide]
- MIC (S. aureus ATCC 29213; [7]): 4 µg/mL (≈ 11.3 µM)
- MBC (S. aureus ATCC 29213; [8]): 8 µg/mL (≈ 22.6 µM)
- MIC (A. baumannii ATCC 19606; [9]): 8 µg/mL (≈ 22.6 µM)
- MBC (A. baumannii ATCC 19606; [10]): 16 µg/mL (≈ 45.1 µM)
- MIC (P. aeruginosa ATCC 27853; [11]): 32 µg/mL (≈ 90.3 µM)
- MBC (P. aeruginosa ATCC 27853; Pseudomonas aeruginosa, ATCC27853, read-out: MBC): 32 µg/mL (≈ 90.3 µM)
- MIC (E. faecium ATCC 35667; [12]): 2 µg/mL (≈ 5.64 µM)
- MBC (E. faecium ATCC 35667; [13]): 8 µg/mL (≈ 22.6 µM)
- MIC (E. coli ATCC 25922; [14]): 8 µg/mL (≈ 22.6 µM)
- MBC (E. coli ATCC 25922; [15]): 16 µg/mL (≈ 45.1 µM)
- MIC [1, 16]: > 32 µg/mL
- MIC (MRSA-2; [17]): 2 µg/mL (≈ 5.64 µM)
- MBC (MRSA-2; [18]): 16 µg/mL (≈ 45.1 µM)
- MIC [3, 17]: 4 µg/mL (≈ 11.3 µM)
- MBC [3, 18]: 8 µg/mL (≈ 22.6 µM)
- MIC (MRSA-1; [17]): 2 µg/mL (≈ 5.64 µM)
- MBC (MRSA-1; [18]): 16 µg/mL (≈ 45.1 µM)
- MIC [4, 17]: 2 µg/mL (≈ 5.64 µM)
- MBC [4, 18]: 16 µg/mL (≈ 45.1 µM)
- MIC [5, 17]: 4 µg/mL (≈ 11.3 µM)
- MBC [5, 18]: 16 µg/mL (≈ 45.1 µM)
- MIC [6, 17]: 2 µg/mL (≈ 5.64 µM)
- MBC [6, 18]: > 32 µg/mL

Compound: (E)-2-(6-((2,4-dichlorobenzyl)oxy)-3,4-dihydro-1(2H)-naphthalenylidene)hydrazine-1-carboxamide [Compound 1O]
- MBC (S. aureus ATCC 29213): 8 µg/mL
- MIC (S. aureus ATCC 29213): 4 µg/mL
- MBC (A. baumannii ATCC 19606): 16 µg/mL
- MIC (A. baumannii ATCC 19606; 18 h): 16 µg/mL
- MIC (P. aeruginosa ATCC 27853; 18 h): >32/- µg/mL
- MBC (E. faecium ATCC 35667): 16 µg/mL
- MIC (E. faecium ATCC 35667): 2 µg/mL
- MBC (E. coli ATCC 25922): 16 µg/mL
- MIC (E. coli ATCC 25922; 18 h): 8 µg/mL
- MIC ([1]; 18 h): >32/- µg/mL
- MBC (MRSA-2): 8 µg/mL
- MIC (MRSA-2): 2 µg/mL
- MBC [3]: 2 µg/mL
- MIC [3]: ≤ 1 µg/mL
- MBC (MRSA-1): 16 µg/mL
- MIC (MRSA-1): 1 µg/mL
- MBC [4]: 4 µg/mL
- MIC [4]: ≤ 1 µg/mL
- MBC [5]: 16 µg/mL
- MIC [5]: 2 µg/mL
- MBC [6]: 8 µg/mL
- MIC [6]: 4 µg/mL

Compound: (E)-2-(6-((3,4-dichlorobenzyl)oxy)-3,4-dihydro-1(2H)-naphthalenylidene)hydrazine-1-carboxamide [Compound 1P]
- MBC (S. aureus ATCC 29213): 8 µg/mL
- MIC (S. aureus ATCC 29213): 2 µg/mL
- MBC (A. baumannii ATCC 19606): 16 µg/mL
- MIC (A. baumannii ATCC 19606; 18 h): 8 µg/mL
- MIC (P. aeruginosa ATCC 27853; 18 h): >32/- µg/mL
- MBC (E. faecium ATCC 35667): 8 µg/mL
- MIC (E. faecium ATCC 35667): 2 µg/mL
- MBC (E. coli ATCC 25922): 16 µg/mL
- MIC (E. coli ATCC 25922; 18 h): 8 µg/mL
- MBC [1]: 32 µg/mL
- MIC ([1]; 18 h): 32 µg/mL
- MBC (MRSA-2): 4 µg/mL
- MIC (MRSA-2): 2 µg/mL
- MBC [3]: ≤ 1 µg/mL
- MIC [3]: ≤ 1 µg/mL
- MBC (MRSA-1): 16 µg/mL
- MIC (MRSA-1): 1 µg/mL
- MBC [4]: 4 µg/mL
- MIC [4]: 2 µg/mL
- MBC [5]: 4 µg/mL
- MIC [5]: 2 µg/mL
- MBC [6]: 8 µg/mL
- MIC [6]: 2 µg/mL

Compound: (E)-2-(6-((4-chlorobenzyl)oxy)-3,4-dihydro-1(2H)-naphthalenylidene)hydrazine-1-carboxamide [Compound 1N]
- MBC (S. aureus ATCC 29213): 4 µg/mL
- MIC (S. aureus ATCC 29213): 2 µg/mL
- MBC (A. baumannii ATCC 19606): 16 µg/mL
- MIC (A. baumannii ATCC 19606; 18 h): 4 µg/mL
- MBC (P. aeruginosa ATCC 27853): 32 µg/mL
- MIC (P. aeruginosa ATCC 27853; 18 h): 16 µg/mL
- MBC (E. faecium ATCC 35667): 8 µg/mL
- MIC (E. faecium ATCC 35667): 2 µg/mL
- MBC (E. coli ATCC 25922): 8 µg/mL
- MIC (E. coli ATCC 25922; 18 h): 4 µg/mL
- MBC [1]: 32 µg/mL
- MIC ([1]; 18 h): 16 µg/mL
- MBC (MRSA-2): 4 µg/mL
- MIC (MRSA-2): 2 µg/mL
- MBC [3]: 16 µg/mL
- MIC [3]: 2 µg/mL
- MBC (MRSA-1): 4 µg/mL
- MIC (MRSA-1): 2 µg/mL
- MBC [4]: 2 µg/mL
- MIC [4]: 2 µg/mL
- MBC [5]: 4 µg/mL
- MIC [5]: 2 µg/mL
- MBC [6]: 8 µg/mL
- MIC [6]: 4 µg/mL
